Results from patent US9353090B2, “Heterocyclic carboxylic acids as activators of soluble guanylate cyclase” (Boehringer Ingelheim International GmbH, priority 2014, dated 2016).
Converted amounts (≈) assume the structure as drawn.

Key:
[1] = physchem; settings: kinetic from dmso stock
[2] = Human liver microsome (HLM) metabolic stability assay; format: in vitro ADME; settings: human liver microsomes
Description: The 5 time point, high-throughput human liver microsome (HLM) metabolic stability assay is designed to determine in vitro compound metabolism. Compounds are incubated with HLMs at a concentration of 1 uM, at 37° C., for a total of 60 min. The percent of compound remaining at 5, 15, 30, and 60 min is used to calculate the t1/2 (min), CLint (mL/min/kg), CLh (mL/min/kg), and % Qh. The assay is based on a 96-well format and can accommodate up to 92 compounds per plate (n=1).
Using the 96-well multi-channel head, the Biomek FX, equipped with a Peltier heating block/shaker, is programmed to accomplish the following steps: • 1. Pipette 175 uL of 1.15 mg/mL microsomes into each of the 96 conical inserts (Analytical Sales and Products, catalog number 96PL05) that fit into the plate of the Peltier heating block/shaker (the incubation plate) • 2. Add 5 uL of compounds from the assay plate to the microsomes and shake the mixture at 600 rpm at 42.1° C. for 10 min (a setting of 42.1° C. on the Peltier is required for the samples to incubate at 37° C.) • 3. After 10 min, prompt the user to add the NADPH plate to the deck and add 20 uL from the NADPH plate to the incubation plate to start the reaction • 4. Add 215 uL of 100%, cold acetonitrile containing an internal standard(s) to a 0 minute, 5 minute, 15 minute, 30 minute, and 60 minute “quench” plate • 5. At 0 min, 5 min, 15 min, 30 min, and 60 min into the incubation, aspirate 12 uL from the incubation mixture and add it to the quench solution to stop the reaction • 6. Add 185 uL HPLC grade water to each well of the 0, 5, 15, 30 and 60 minute quench plates to dilute compounds to the appropriate concentration for the mass spectrometer
After all time points are collected, the quench plates are sealed with 96-well pierceable plate mats or heat sealing foil and centrifuged at 3000 rpm for 15 min to pellet the microsomes.
The plates are analyzed using LC/MS/MS with electron spray ionization (ESI) and the previously determined MRM transitions. The LC method includes the following parameters:
Using an Excel template in Activitybase, the peak areas corresponding to 5, 15, 30 and 60 min are compared to the peak area at 0 min to calculate the percent of remaining compound using the following equation:
Percent compound remaining=(AUC at Time t min/AUC at Time 0 min)×100 where t=0, 5, 15, 30 or 60 min.
Time (min) is plotted against the natural logarithm (Ln) of the percent compound remaining to determine the slope. The slope is used to calculate t1/2 (min) using the equation, t1/2=0.693/slope.
Clh, Hepatic clearance • Hepatic flow*f(u)*Clint/(hepatic flow+f(u)*Clint)
Qh, % Hepatic blood flow • (Clh/Hepatic flow)*100
Preferred compounds have % Qh values of less than 24.

[3] = biological target: human soluble guanylate cyclase alpha 1 and beta 1 subunits (sGC) (Homo sapiens (Human), UniProt Q02108+Q02153); experiment: sGC cellular activator assay (cGMP, HTRF), in the presence and absence of 50% human serum; format: cell-based; settings: CHO cells stably expressing human sGC alpha 1/beta 1, preincubated with 40 microM ODQ; cGMP by HTRF; Table 2 does not state whether with or without 50% human serum
human soluble guanylate cyclase alpha 1 and beta 1 subunits (sGC), sequence (Q02108 whole entry partner): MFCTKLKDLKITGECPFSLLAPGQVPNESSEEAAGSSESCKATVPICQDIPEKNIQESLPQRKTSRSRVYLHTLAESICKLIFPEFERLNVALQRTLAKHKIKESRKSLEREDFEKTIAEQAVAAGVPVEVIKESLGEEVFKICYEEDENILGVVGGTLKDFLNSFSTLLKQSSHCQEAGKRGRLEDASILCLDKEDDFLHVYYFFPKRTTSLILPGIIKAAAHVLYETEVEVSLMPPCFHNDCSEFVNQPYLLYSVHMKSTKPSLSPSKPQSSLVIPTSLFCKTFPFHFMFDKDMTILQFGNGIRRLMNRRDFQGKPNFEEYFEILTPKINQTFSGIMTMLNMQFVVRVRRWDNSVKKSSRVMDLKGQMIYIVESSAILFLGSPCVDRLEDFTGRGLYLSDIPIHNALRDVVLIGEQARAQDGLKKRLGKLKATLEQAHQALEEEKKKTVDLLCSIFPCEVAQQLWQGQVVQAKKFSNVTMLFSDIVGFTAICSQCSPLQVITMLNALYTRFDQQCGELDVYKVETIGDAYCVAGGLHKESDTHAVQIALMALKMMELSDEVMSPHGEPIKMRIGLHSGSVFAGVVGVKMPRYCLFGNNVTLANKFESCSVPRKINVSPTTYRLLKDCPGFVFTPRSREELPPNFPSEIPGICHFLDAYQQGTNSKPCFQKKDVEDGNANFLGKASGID
human soluble guanylate cyclase alpha 1 and beta 1 subunits (sGC), sequence (Q02153 whole entry): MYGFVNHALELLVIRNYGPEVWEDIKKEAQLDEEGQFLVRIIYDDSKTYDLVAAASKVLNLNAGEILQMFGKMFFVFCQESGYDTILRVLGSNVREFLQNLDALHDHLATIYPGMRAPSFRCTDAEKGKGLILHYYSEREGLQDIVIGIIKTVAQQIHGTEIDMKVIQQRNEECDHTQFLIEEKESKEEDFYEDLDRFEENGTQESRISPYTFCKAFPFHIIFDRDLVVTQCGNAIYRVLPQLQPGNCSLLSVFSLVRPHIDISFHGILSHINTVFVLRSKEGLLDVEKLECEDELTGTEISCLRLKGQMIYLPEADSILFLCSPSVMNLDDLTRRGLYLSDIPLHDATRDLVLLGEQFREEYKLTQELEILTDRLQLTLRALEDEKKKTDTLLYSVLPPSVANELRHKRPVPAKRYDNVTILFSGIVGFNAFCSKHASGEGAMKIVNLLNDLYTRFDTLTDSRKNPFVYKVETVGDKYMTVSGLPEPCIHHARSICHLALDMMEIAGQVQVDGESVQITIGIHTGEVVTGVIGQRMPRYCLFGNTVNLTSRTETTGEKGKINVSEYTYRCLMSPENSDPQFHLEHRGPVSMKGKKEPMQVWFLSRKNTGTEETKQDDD
Description: The sGC cellular activator assay is performed in the presence and absence of 50% human serum (HS) using Chinese hamster ovary cells that have been stably transfected to express the human soluble guanylate cyclase alpha 1 and beta 1 subunits (sGC). Cells are preincubated with 40 microM 1H-[1,2,4]oxadiazolo[4,3-a]quinoxalin-1-one (ODQ), an sGC inhibitor, for one h in buffer containing 0.1% bovine serum albumin and 3-isobutyl-1-methylxanthine (IBMX). Concentration response curves are prepared for test compounds in DMSO. An intermediate dilution of the compounds is performed in either buffer containing IBMX or type AB HS containing IBMX. Diluted compounds are added to cells and they are incubated at room temperature for thirty min. cGMP is measured using a CisBio homogeneous time resolved fluorescence kit and the EC50 is calculated for each compound.
Representative compounds of the present invention were tested for activity the above assay. Preferred compounds have an EC50 of <1,000 nM in the above assay and more preferred compounds have an EC50<200 nM.

[4] = pH 2.2, aqueous buffer, Solubility (pH 2.2)
[5] = pH 4.5, aqueous buffer, Solubility (pH 4.5)
[6] = pH 6.8, aqueous buffer, Solubility (pH 6.8)

Row | Compound | solubility at 24 h [1, 4] | solubility at 24 h [1, 5] | solubility at 24 h [1, 6] | Metabolic stability (Qh %), % hepatic blood flow [2] | EC50 [3]
1 | Cc1cc(COc2ccccc2-c2cccc(N3CC[C@@]4(C(=O)O)C[C@H]4C3)n2)cc2c1CN(C1CCOCC1)CC2 [Compound 12] | 110 µg/mL (≈ 199 µM) | 90 µg/mL (≈ 163 µM) | 33 µg/mL (≈ 59.6 µM) | <24% | 12 nM
2 | Cc1cccc(-c2cccc(N3CC[C@@]4(C(=O)O)C[C@H]4C3)n2)c1OCc1ccc2c(c1)CCN(C1CCOCC1)C2 [Compound 13] | 140 µg/mL (≈ 253 µM) | 120 µg/mL (≈ 217 µM) | 71 µg/mL (≈ 128 µM) | 42% | 6 nM
3 | Cc1cccc(-c2cccc(N3CC[C@@]4(C(=O)O)C[C@H]4C3)n2)c1OCc1ccc2c(c1C)CCN(C1CCOCC1)C2 [Compound 14] | 120 µg/mL (≈ 211 µM) | 94 µg/mL (≈ 166 µM) | 53 µg/mL (≈ 93.4 µM) | 61% | 3 nM
4 | Cc1cc(COc2c(C)cccc2-c2cccc(N3CC[C@@]4(C(=O)O)C[C@H]4C3)n2)cc2c1CN(C1CCOCC1)CC2 [Compound 15] | 110 µg/mL (≈ 194 µM) | 90 µg/mL (≈ 159 µM) | 51 µg/mL (≈ 89.8 µM) | 51% | 2 nM
5 | Cc1ccc(OCc2ccc3c(c2)CCN(C2CCOCC2)C3)c(-c2cccc(N3CC[C@@]4(C(=O)O)C[C@H]4C3)n2)c1 [Compound 16] | 130 µg/mL (≈ 235 µM) | 96 µg/mL (≈ 173 µM) | 41 µg/mL (≈ 74 µM) | 28% | 8 nM
6 | Cc1ccc(OCc2ccc3c(c2)CCN(C2COC2)C3)c(-c2cccc(N3CC[C@@]4(C(=O)O)C[C@H]4C3)n2)c1 [Compound 17] | 100 µg/mL (≈ 190 µM) | 83 µg/mL (≈ 158 µM) | 39 µg/mL (≈ 74.2 µM) | 33% | 22 nM
7 | Cc1ccc(OCc2ccc3c(c2C)CCN(C2CCOCC2)C3)c(-c2cccc(N3CC[C@@]4(C(=O)O)C[C@H]4C3)n2)c1 [Compound 18] | 130 µg/mL (≈ 229 µM) | 99 µg/mL (≈ 174 µM) | 38 µg/mL (≈ 66.9 µM) | 34% | 2 nM
8 | Cc1ccc(OCc2ccc3c(c2C)CCN(C2COC2)C3)c(-c2cccc(N3CC[C@@]4(C(=O)O)C[C@H]4C3)n2)c1 [Compound 19] | 110 µg/mL (≈ 204 µM) | 82 µg/mL (≈ 152 µM) | 32 µg/mL (≈ 59.3 µM) | 63% | 8 nM
9 | Cc1cccc(-c2cccc(N3C[C@@H]4C[C@]4(C(=O)O)C3)n2)c1OCc1ccc2c(c1)CCN(C1CCOCC1)C2 [Compound 20] | 110 µg/mL (≈ 204 µM) | 96 µg/mL (≈ 178 µM) | 64 µg/mL (≈ 119 µM) | <24% | 21 nM
10 | Cc1cccc(-c2cccc(N3C[C@@H]4C[C@]4(C(=O)O)C3)n2)c1OCc1ccc2c(c1C)CCN(C1CCOCC1)C2 [Compound 21] | 120 µg/mL (≈ 217 µM) | 110 µg/mL (≈ 199 µM) | 70 µg/mL (≈ 126 µM) | <24% | 11 nM
11 | Cc1cc(COc2c(C)cccc2-c2cccc(N3C[C@@H]4C[C@]4(C(=O)O)C3)n2)cc2c1CN(C1CCOCC1)CC2 [Compound 22] | 110 µg/mL (≈ 199 µM) | 90 µg/mL (≈ 163 µM) | 60 µg/mL (≈ 108 µM) | <24% | 6 nM
12 | Cc1cc(COc2c(C)cccc2-c2cccc(N3C[C@@H]4C[C@]4(C(=O)O)C3)n2)cc2c1CN(C1COC1)CC2 [Compound 23] | 100 µg/mL (≈ 190 µM) | 88 µg/mL (≈ 167 µM) | 69 µg/mL (≈ 131 µM) | <24% | 6 nM
